Results as given in patent US8163737B2 (Vertex Pharmaceuticals Incorporated, priority 2006, dated 2012).

Molecular target: endogenous CGRP receptor (Homo sapiens, UniProt O60894+Q16602)
Assay: CGRP functional antagonism using SK-N-MC-BLA (4C10), β-lactamase transcriptional reporter assay
Assay type: cell-based
Settings: SK-N-MC (4C10) cells, inhibition of β-lactamase expression in the presence of 200 pM CGRP
Source text: Measuring CGRP Functional Antagonism Using SK-N-MC-BLA (4C10):
CGRP functional antagonism was characterized in a cell based transcriptional assay using a recombinant SK-N-MC line. To introduce the transcriptional reporter system, SK-N-MC cell line was transduced with a retroviral vector containing β-lactamase gene downstream of cAMP responsive promoter. The expression of β-lactamase is triggered by cAMP increase that is a downstream event of activation of endogenous CGRP receptor. Single clones were separated using Fluorescent Activated Cell Sorting (FACS) based on CGRP induced β-lactamase activity. β-lactamase activity was measured using a fluorescence energy transfer (FRET) dye, CCF4. […] To evaluate functional antagonist activity of compounds in SK-N-MC (4C10) line, compounds were evaluated for their inhibition of β-lactamase expression in the presence of CGRP.
SK-N-MC (4C10) was cultured in Minimal Essential Media (MEM) (Invitrogen) supplemented with 1 mM non-essential amino acids solution (Invitrogen), 100 units/ml Penicillin-Streptomycin (Invitrogen), 1 mM sodium pyruvate (Invitrogen) and 10% fetal bovine serum. For the β-lactamase assay, low serum, 1% FBS in MEM was used. 30,000 cells were plated into each wells of poly-D-lysine coated 384-well plate (Becton Dickinson) a day prior to the assay. SK-N-MC (4C10) was preincubated with compounds for 30 min before the addition of 200 pM CGRP. The assay was incubated for 3 hours at 37° C. to allow β-lactamase expression. CCF4 dye was added and incubated for 2 hours at room temperature. […] Curve fitting and IC50 calculation were carried about using MOD3.

endogenous CGRP receptor, sequence (Q16602 23-461): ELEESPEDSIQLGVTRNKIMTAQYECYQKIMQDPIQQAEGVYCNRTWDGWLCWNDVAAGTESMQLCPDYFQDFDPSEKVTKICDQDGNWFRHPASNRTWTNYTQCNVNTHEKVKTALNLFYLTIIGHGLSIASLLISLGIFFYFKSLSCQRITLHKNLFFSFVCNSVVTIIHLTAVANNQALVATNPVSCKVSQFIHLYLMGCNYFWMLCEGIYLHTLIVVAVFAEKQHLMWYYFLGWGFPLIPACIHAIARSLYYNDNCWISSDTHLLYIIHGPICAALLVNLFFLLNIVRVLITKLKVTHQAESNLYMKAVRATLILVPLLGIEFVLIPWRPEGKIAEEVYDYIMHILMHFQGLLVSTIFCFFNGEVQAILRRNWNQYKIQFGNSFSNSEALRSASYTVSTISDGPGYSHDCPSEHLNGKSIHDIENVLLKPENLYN
endogenous CGRP receptor, sequence (O60894 27-148): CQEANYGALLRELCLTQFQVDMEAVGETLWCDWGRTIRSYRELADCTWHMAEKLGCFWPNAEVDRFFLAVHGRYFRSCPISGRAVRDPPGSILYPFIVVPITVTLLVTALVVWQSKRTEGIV

IC50 [µM] | SMILES
< 1 | CCOCCCN1C(=O)C(CC(=O)N2CCC(N3CCc4ccccc4NC3=O)CC2)SC1c1ccccc1 (stereo not drawn) [Compound 4]
1 to 5 | CC(C)CCN1C(=O)C(CC(=O)N2CCC(N3Cc4ccccc4NC3=O)CC2)SC1c1ccc(S(C)(=O)=O)cc1 (stereo not drawn) [Compound 5]
< 1 | CC(C)CCN1C(=O)C(CC(=O)N2CCC(N3Cc4ccccc4NC3=O)CC2)SC1CCc1ccccc1 (stereo not drawn) [Compound 6]
< 1 | CC(C)(C)CCN1C(=O)C(CC(=O)N2CCC(N3CCc4ccccc4NC3=O)CC2)SC1c1ccccc1N1CCCCC1 (stereo not drawn) [Compound 7]
< 1 | CC(C)CCN1C(=O)C(CC(=O)N2CCC(N3CCc4ccccc4NC3=O)CC2)SC1[C@@H](C)c1ccccc1 (stereo partly drawn) [Compound 11]
< 1 | CC(C)CCN1C(=O)C(CC(=O)N2CCC(N3CCc4ccccc4NC3=O)CC2)SC1c1cc(C(F)(F)F)ccc1F (stereo not drawn) [Compound 13]
1 to 5 | COc1ccc(C2SC(CC(=O)N3CCC(N4Cc5ccccc5NC4=O)CC3)C(=O)N2CCC(C)C)cc1F (stereo not drawn) [Compound 18]
< 1 | Cc1cc(C)c(C2SC(CC(=O)N3CCC(N4CCc5ccccc5NC4=O)CC3)C(=O)N2CCC(C)C)c(C)c1 (stereo not drawn) [Compound 21]
1 to 5 | CN1CCN(c2ccccc2[C@H]2SC(CC(=O)N3CCC(n4c(=O)[nH]c5ccccc54)CC3)C(=O)N2CCC(C)(C)C)CC1 (stereo partly drawn) [Compound 22]
< 1 | CC(C)CCN1C(=O)C(CC(=O)N2CCC(N3CCc4ccccc4NC3=O)CC2)SC1c1cccc(C(F)(F)F)c1F (stereo not drawn) [Compound 23]
1 to 5 | CC(C)N1C(=O)C(CC(=O)N2CCC(N3CCc4ccccc4NC3=O)CC2)SC1c1ccccc1 (stereo not drawn) [Compound 24]
< 1 | CC(C)(C)CCN1C(=O)C(CC(=O)N2CCC(N3Cc4ccccc4NC3=O)CC2)SC1c1c(F)cccc1F (stereo not drawn) [Compound 25]
< 1 | Cc1c(F)cccc1C1SC(CC(=O)N2CCC(N3CCc4ccccc4NC3=O)CC2)C(=O)N1CCC(C)C (stereo not drawn) [Compound 26]
> 5 | CC(=O)N1CC2(CCN(C(=O)CC3SC(c4ccccc4)N(CCC(C)C)C3=O)CC2)c2cc(C(C)C)ccc21 (stereo not drawn) [Compound 27]
> 5 | CC(C)CCN1C(=O)C(CC(=O)N2CCC3(CC2)C(=O)N(C)c2ccccc23)SC1c1ccccc1 (stereo not drawn) [Compound 29]
< 1 | CC(C)(C)CCN1C(=O)C(CC(=O)N2CCC(N3Cc4ccccc4NC3=O)CC2)SC12CCSCC2 (stereo not drawn) [Compound 31]
< 1 | CC(C)CCN1C(=O)C(CC(=O)N2CCC(N3Cc4ccccc4NC3=O)CC2)SC12CCCCCC2 (stereo not drawn) [Compound 32]
< 1 | CN1CCN(c2ccccc2C2SC(CC(=O)N3CCC(N4CCc5ccccc5NC4=O)CC3)C(=O)N2CCC(C)(C)C)CC1 (stereo not drawn) [Compound 34]
< 1 | O=C(CC1SC(c2ccccc2)N(CC(F)(F)C(F)(F)F)C1=O)N1CCC(N2Cc3ccccc3NC2=O)CC1 (stereo not drawn) [Compound 36]
< 1 | CCCN1C(=O)C(CC(=O)N2CCC(N3CCc4ccccc4NC3=O)CC2)SC1c1ccccc1 (stereo not drawn) [Compound 38]
1 to 5 | O=C(CC1SC(c2ccccc2)N(Cc2ccncc2)C1=O)N1CCC(N2Cc3ccccc3NC2=O)CC1 (stereo not drawn) [Compound 46]

IC50 [µM] | SMILES
< 1 | CN1CCN(c2ccccc2[C@H]2SC(CC(=O)N3CCC(n4c(=O)[nH]c5ncccc54)CC3)C(=O)N2CCC(C)(C)C)CC1 (stereo partly drawn) [Compound 47]
< 1 | Cc1cc(C)c(C2SC(CC(=O)N3CCC(N4Cc5ccccc5NC4=O)CC3)C(=O)N2CCC(C)C)c(C)c1 (stereo not drawn) [Compound 51]
1 to 5 | COC(=O)[C@H](CC1CCCCC1)N1C(=O)C(CC(=O)N2CCC(N3Cc4ccccc4NC3=O)CC2)SC1c1ccccc1 (stereo partly drawn) [Compound 55]
< 1 | CC(C)(C)CCN1C(=O)C(CC(=O)N2CCC(N3CCc4ccccc4NC3=O)CC2)SC12CCCCCC2 (stereo not drawn) [Compound 57]
< 1 | CC(C)CCN1C(=O)C(CC(=O)N2CCC(n3c(=O)[nH]c4ncccc43)CC2)SC1c1ccccc1N1CCN(C)CC1 (stereo not drawn) [Compound 59]
< 1 | CC(C)CCN1C(=O)C(CC(=O)N2CCC(N3CCc4ccccc4NC3=O)CC2)SC1c1ccccc1OCc1ccccc1 (stereo not drawn) [Compound 65]
< 1 | CC(C)CCN1C(=O)C(CC(=O)N2CCC(n3c(=O)[nH]c4ncccc43)CC2)SC1c1ccccc1 (stereo not drawn) [Compound 69]
> 5 | CCCCCCCC1SC(CC(=O)N2CCC(N3Cc4ccccc4NC3=O)CC2)C(=O)N1CCC(C)C (stereo not drawn) [Compound 71]
< 1 | Cc1ccc(C2SC(CC(=O)N3CCC(N4CCc5ccccc5NC4=O)CC3)C(=O)N2CCC(C)C)c(C)c1 (stereo not drawn) [Compound 73]
1 to 5 | CCCCCCCC1SC(CC(=O)N2CCC(N3CCc4ccccc4NC3=O)CC2)C(=O)N1CCC(C)C (stereo not drawn) [Compound 74]
1 to 5 | CC(C)CCN1C(=O)C(CC(=O)N2CCC(N3Cc4ccccc4NC3=O)CC2)SC1C(C)(C)C (stereo not drawn) [Compound 75]
> 5 | CN1CCCC1CCN1C(=O)C(CC(=O)N2CCC(N3Cc4ccccc4NC3=O)CC2)SC1c1ccccc1 (stereo not drawn) [Compound 77]
1 to 5 | CCN(CC)CCN1C(=O)C(CC(=O)N2CCC(N3Cc4ccccc4NC3=O)CC2)SC1c1ccccc1 (stereo not drawn) [Compound 82]
< 1 | O=C(CC1SC(c2ccccc2)N(CC2CCCO2)C1=O)N1CCC(N2CCc3ccccc3NC2=O)CC1 (stereo not drawn) [Compound 83]
> 5 | CN1CCN(c2ccccc2C2SC(CC(=O)N3CCC(CO)CC3)C(=O)N2CCC(C)(C)C)CC1 (stereo not drawn) [Compound 85]
1 to 5 | CC(C)CCN1C(=O)C(CC(=O)N2CCC(N3Cc4ccccc4NC3=O)CC2)SC12CCCCC2 (stereo not drawn) [Compound 86]
< 1 | CC(C)CCN1C(=O)C(CC(=O)N2CCC(N3CCc4ccccc4NC3=O)CC2)SC1c1c(Cl)cccc1Cl (stereo not drawn) [Compound 89]
< 1 | CC(C)CCN1C(=O)C(CC(=O)N2CCC(N3CCc4ccccc4NC3=O)CC2)SC12CCCCCC2 (stereo not drawn) [Compound 91]
< 1 | O=C(CC1SC(c2cccc(F)c2F)N(CC2CCCCC2)C1=O)N1CCC(N2Cc3ccccc3NC2=O)CC1 (stereo not drawn) [Compound 92]
> 5 | CC(C)(C)CCN1C(=O)C(CC(=O)N2CCC(N3Cc4ccccc4NC3=O)CC2)SC1c1cccc2cc[nH]c12 (stereo not drawn) [Compound 94]
< 1 | CC(C)CCN1C(=O)C(CC(=O)N2CCC(N3Cc4ccccc4NC3=O)CC2)SC1C1CCCCC1 (stereo not drawn) [Compound 95]

IC50 [µM] | SMILES
1 to 5 | C=CCN1C(=O)C(CC(=O)N2CCC(N3CCc4ccccc4NC3=O)CC2)SC1c1ccccc1 (stereo not drawn) [Compound 96]
> 5 | CN1CCN(c2ccccc2[C@H]2SC(CC(=O)N3CCCCC3)C(=O)N2CCC(C)(C)C)CC1 (stereo partly drawn) [Compound 97]
1 to 5 | CC(C)CCN1C(=O)C(CC(=O)N2CCC(N3CCc4ccccc4NC3=O)CC2)SC1Cc1ccccc1 (stereo not drawn) [Compound 98]
< 1 | CC1=CCCC(C)C1C1SC(CC(=O)N2CCC(N3Cc4ccccc4NC3=O)CC2)C(=O)N1CCC(C)C (stereo not drawn) [Compound 100]
> 5 | CC(C)CCN1C(=O)C(CC(=O)N2CCC(N3Cc4ccccc4NC3=O)CC2)SC1C(C)c1ccccc1 (stereo not drawn) [Compound 101]
> 5 | CCCOc1ccc(C2SC(CC(=O)N3CCC(N4Cc5ccccc5NC4=O)CC3)C(=O)N2CCC(C)C)cc1 (stereo not drawn) [Compound 103]
> 5 | O=C(CC1SC(c2ccccc2)N(Cc2ccncc2)C1=O)N1CCC(n2c(=O)[nH]c3ccccc32)CC1 (stereo not drawn) [Compound 108]
> 5 | CC(C)CCN1C(=O)C(CC(=O)N2CCC3(CC2)C(=O)Nc2ccccc23)SC1c1ccccc1 (stereo not drawn) [Compound 111]
> 5 | CC(C)CCN1C(=O)C(CC(=O)N2CCC(n3cc(-c4ccccc4)[nH]c3=O)CC2)SC1c1ccc(Cl)cc1 (stereo not drawn) [Compound 112]
< 1 | CC(C)CCN1C(=O)C(CC(=O)N2CCC(N3Cc4ccccc4NC3=O)CC2)SC1c1ccccc1N(C)C (stereo not drawn) [Compound 121]
< 1 | Cc1cccc(C)c1C1SC(CC(=O)N2CCC(N3CCc4ccccc4NC3=O)CC2)C(=O)N1CCC(C)C (stereo not drawn) [Compound 123]
1 to 5 | CC(C)CCN1C(=O)C(CC(=O)N2CCC(N3Cc4ccccc4NC3=O)CC2)SC1c1ccc(N(C)C)cc1 (stereo not drawn) [Compound 124]
< 1 | CC(C)CCN1C(=O)C(CC(=O)N2CCC(N3CCc4ccccc4NC3=O)CC2)SC1c1cccnc1N1CCOCC1 (stereo not drawn) [Compound 125]
< 1 | O=C(CC1SC(c2ccccc2F)N(CC2CCCCC2)C1=O)N1CCC(N2Cc3ccccc3NC2=O)CC1 (stereo not drawn) [Compound 126]
1 to 5 | CC(C)(C)CCN1C(=O)C(CC(=O)N2CCC(N3CCc4ccccc4NC3=O)CC2)SC1c1cccc2cc[nH]c12 (stereo not drawn) [Compound 130]
> 5 | CC(=O)N1CC2(CCN(C(=O)CC3SC(c4ccccc4)N(CCC(C)C)C3=O)CC2)c2cc(C(F)(F)F)ccc21 (stereo not drawn) [Compound 131]
1 to 5 | CN1C(=O)C(CC(=O)N2CCC(N3CCc4ccccc4NC3=O)CC2)SC1c1ccccc1 (stereo not drawn) [Compound 132]
< 1 | Cc1cccc(C)c1C1SC(CC(=O)N2CCC(N3Cc4ccccc4NC3=O)CC2)C(=O)N1CCC(C)C (stereo not drawn) [Compound 134]
< 1 | O=C(CC1SC(c2ccc(F)cc2F)N(CC2CCCCC2)C1=O)N1CCC(N2CCc3ccccc3NC2=O)CC1 (stereo not drawn) [Compound 135]
< 1 | CC(C)CCN1C(=O)C(CC(=O)N2CCC(N3Cc4ccccc4NC3=O)CC2)SC1c1cc(C(F)(F)F)ccc1F (stereo not drawn) [Compound 136]
< 1 | O=C(CC1SC(c2ccc(F)cc2F)N(CC2CCCCC2)C1=O)N1CCC(N2Cc3ccccc3NC2=O)CC1 (stereo not drawn) [Compound 137]
